{
  "source": "patent US11807627B2",
  "about": "“Morphic forms of complement factor D inhibitors” (priority 2018, dated 2023)",
  "assay_type_in_all_cases": "physicochemical",
  "key": {"[1]": {"assay": "Thermogravimetric/differential thermal analysis (TG/DTA)", "experimental": "Approximately, 5 mg of material was weighed into an open aluminium pan and loaded into a simultaneous thermogravimetric/differential thermal analyzer (TG/DTA) and held at room temperature. The sample was then heated at a rate of 10° C./min from 20° C. to 400° C. during which time the change in sample weight occurred was recorded along with any differential thermal events (DTA). Nitrogen was used as the purge gas at a flow rate of 300 cm^3/min."}, "[2]": {"assay": "Variable temperature XRPD (VT-XRPD)", "details": "Table 27A", "experimental": "VT-XRPD analysis was carried out on a Philips X'Pert Pro Multipurpose diffractometer equipped with a temperature chamber. The samples were scanned between 4 and 35.99°2θ using Cu K radiation (α1λ=1.54060 Å; α2=1.54443 Å; β=1.39225 Å; α1: α2 ratio=0.5) running in Bragg-Brentano geometry (step size 0.008°2θ) using 40 kV/40 mA generator settings."}, "[3]": {"assay": "Solubility in selected media (FaSSIF, FeSSIF, FaSSGF, pH 4 citrate, pH 6.8 phosphate)", "experimental": "Solubility within selected media (FaSSIF, FeSSIF, FaSSGF, pH 4 citrate and pH 6.8 phosphate) was measured to be <0.01 mg/mL.\nThe pH 4 citrate buffer was prepared by dissolving sodium citrate (987 mg) and citric acid (1.28 g) in 100 mL H2O. The pH was adjusted to 4. The pH 6.8 phosphate buffer was prepared by dissolving dibasic sodium phosphate dihydrate (873 mg) and monobasic sodium phosphate monohydrate (708 mg) in 100 mL H2O. The pH was adjusted to 6.8. The FaSSIF media was prepared with sodium hydroxide (108 mg), sodium chloride (1.55 g) and monobasic sodium phosphate dihydrate (1.12 g) in H2O (0.25 L) and the pH adjusted to 6.5. FaSSIF/FeSSIF/FaSSGF (0.56 g) was dissolved in the buffer and mixed until opalescent. The FeSSIF media was prepared by dissolving sodium hydroxide (1.01 g), sodium chloride (2.96 g) and glacial acetic acid (2.97 g) in H2O (0.25 L) and the pH adjusted to pH 5. FaSSIF/FeSSIF/FaSSGF (2.81 g) was dissolved in the buffer and thoroughly mixed. The FaSSGF media was prepared by dissolving FaSSIF/FeSSIF/FaSSGF (0.06 g) in a solution of sodium chloride (2.00 g) dissolved in H2O (1 L) and mixing thoroughly."}, "[4]": {"assay": "Differential scanning calorimetry (DSC)", "experimental": "DSC was performed using a TA Instruments 2920 or Q2000 differential scanning calorimeter. Temperature calibration was performed using NIST-traceable indium metal. The sample was placed into an aluminum DSC pan, covered with a lid, and the weight was accurately recorded. A weighed aluminum pan configured as the sample pan was placed on the reference side of the cell. The method code on the thermogram is an abbreviation for the start and end temperature as well as the heating rate; e.g., -30-250-10 means “from −30° C. to 250° C., at 10° C./min”. The following table summarizes the abbreviations used in each image for pan configurations: […]"}, "[5]": {"assay": "Drying of isolated samples at 50° C. for approximately 24 hours", "experimental": "Samples produced from thermal cycling, cooling and evaporation experiments were dried at 50° C. for approximately 24 hours to assess any de-solvation/dehydration. From temperature cycling experiments, 3 samples converted upon drying: • Acetonitrile sample converted from Form J to amorphous; • 40% Ethanol/60% Water (% v/v) converted from Form N to Form P; and • Methanol sample converted from Form O to amorphous."}, "[6]": {"assay": "Hygroscopicity / dynamic vapour sorption (DVS)", "experimental": "(§1) Approximately, 10-20 mg of sample were placed into a mesh vapour sorption balance pan and loaded into a DVS Intrinsic dynamic vapour sorption balance by Surface Measurement Systems. The sample was subjected to a ramping profile from 40-90% relative humidity (RH) at 10% increments, maintaining the sample at each step until a stable weight had been achieved (dm/dt 0.004%, minimum step length 30 minutes, maximum step length 500 minutes) at 25° C. After completion of the sorption cycle, the sample was dried using the same procedure to 0% RH and then a second sorption cycle back to 40% RH. Two cycles were performed. The weight change during the sorption/desorption cycles were plotted, allowing for the hygroscopic nature of the sample to be determined. XRPD analysis was then carried out on any solid retained.\nas §1, with “Approximately, 10” for “Approximately, 10-20”, “sample was” for “sample were”, “a DVS-1” for “a DVS Intrinsic”"}, "[7]": {"assay": "Storage stability of Compound 3 forms (80° C., 40° C./75% RH, 25° C./60% RH, ambient)", "details": "1 week", "experimental": "No changes by XRPD or HPLC purity were observed when the material was stored at 40° C./75% RH, 80° C. or under ambient conditions."}, "[8]": {"assay": "Polarized light microscopy (PLM)", "details": "Table 27A", "experimental": "The presence of crystallinity (birefringence) was determined using an Olympus BX50 microscope, equipped with cross-polarizing lenses and a Motic camera. Images were captured using Motic Images Plus 2.0. All images were recorded using the 20×objective, unless otherwise stated. All samples were prepared using silicone oil and covered with a cover slip before PLM analysis was completed."}},
  "data": [
    {"smiles": "CC(=O)c1nn(CC(=O)N2[C@H](C(=O)Nc3nc(Br)ccc3C)C[C@@]3(C)C[C@@H]23)c2ccc(-c3cnc(C)nc3)cc12", "note": "[Form J]", "values": [
      {"measurement": "Onset Temp: Solvent loss", "setting": "[1]; Table 22B", "value": "loss 129.3, ° C."},
      {"measurement": "Onset Temp: melting transition", "setting": "[1]; Table 22B", "value": 200.0, "unit": "°C"},
      {"measurement": "TG/DTA: Melting", "setting": "[1]; Table 27A", "value": "melting 206.7 °C"},
      {"measurement": "TG/DTA: Solvent loss", "setting": "[1]; Table 27A", "value": "Solvent loss 138.5° C.,"},
      {"measurement": "Mass loss within the TG trace", "setting": "[1]; up to 150° C.", "value": 2.2, "unit": "wt %"},
      {"measurement": "VT-XRPD: Form J de-solvated to Pattern G", "setting": "[2]", "value": "Pattern G (120° C.)"},
      {"measurement": "solubility", "setting": "[3]; FaSSGF", "value": "<10", "unit": "µg/mL"},
      {"measurement": "solubility", "setting": "[3]; FaSSIF", "value": "<10", "unit": "µg/mL"},
      {"measurement": "solubility", "setting": "[3]; FeSSIF", "value": "<10", "unit": "µg/mL"},
      {"measurement": "Thermal events from SSCI report: Exothermic base line shifts", "setting": "[4]; SSCI report", "value": "~134° C., apparent"},
      {"measurement": "Thermal events from SSCI report: apparent melt onset", "setting": "[4]; SSCI report", "value": "melt onset 83 °C"},
      {"measurement": "DSC: Melting", "setting": "[4]; onset, Table 27A", "value": "melting 202.9 °C"},
      {"measurement": "DSC: Solvent loss", "setting": "[4]; onset, Table 27A", "value": "Solvent loss 138.5 °C"},
      {"measurement": "DSC: Melting (peak)", "setting": "[4]; peak, Table 27A", "value": "(peak 213.3° C.)"},
      {"measurement": "DSC: Solvent loss (peak)", "setting": "[4]; peak, Table 27A", "value": "(peak 152.4° C.)"},
      {"measurement": "Form after drying (de-solvation/dehydration)", "setting": "[5]", "value": "amorphous"},
      {"measurement": "DVS analysis: hygroscopic nature", "setting": "[6]; 25° C.", "value": "hygroscopic"},
      {"measurement": "DVS: hygroscopicity", "setting": "[6]; Table 27A", "value": "Hygroscopic first"},
      {"measurement": "XRPD post DVS", "setting": "[6]; Table 27A", "value": "Form B"},
      {"measurement": "Post-DVS XRPD analysis", "setting": "[6]; after DVS", "value": "pattern D"},
      {"measurement": "DVS uptake", "setting": "[6]; first sorption cycle", "value": 6.9, "unit": "wt %"},
      {"measurement": "DVS uptake as equivalents of water", "setting": "[6]; first sorption cycle", "value": 2.5, "unit": "equiv. water"},
      {"measurement": "DVS uptake", "setting": "[6]; second sorption cycle", "value": 5.2, "unit": "wt %"},
      {"measurement": "DVS uptake as equivalents of water", "setting": "[6]; second sorption cycle", "value": 1.8, "unit": "equiv. water"},
      {"measurement": "1 week stability: 40° C./75% RH HPLC (uncapped)", "setting": "[7]", "value": "99.8% (by relative area)"},
      {"measurement": "1 week stability: 80° C. HPLC (capped)", "setting": "[7]", "value": "99.9% (by relative area)"},
      {"measurement": "1 week stability: 80° C. XRPD (capped)", "setting": "[7]", "value": "Pattern D"},
      {"measurement": "1 week stability: Ambient conditions HPLC (capped)", "setting": "[7]", "value": "99.9% (by relative area)"},
      {"measurement": "PLM", "setting": "[8]", "value": "Birefringent rods"}
    ]}
  ]
}
